Data reported in patent US5585380A, “Modulation of cellular response to external stimuli” (priority 1995, dated 1996).

What was measured:
[1] = tested on: NIH3T3 cell line (D5C3) transformed with temperature-sensitive v-abl mutant gene; assay: Blocking transformed phenotype of D5C3 cells; format: cell-based, murine; settings: pentoxifylline 1 mM, Ciprofloxacin 50 μg/ml
Description: An NIH3T3 cell line ([MUT]) provides target cells which were transformed by an activated oncogene. The cells were transformed with a temperature-sensitive v-abl mutant gene. This mutant gene encodes a temperature-sensitive v-abl protein that produces a non-oncogenic product at a non-permissive temperature due to a lack of tyrosine phosphorylation. The cells were incubated at the permissive temperature (33° C.) for 5 days after passage with and without pentoxifylline (1 mM).

T cell proliferation = settings: Singer et al., Bone Marrow Transplantation (in press); cited from earlier work
[2] = tested on: PA and DAG levels in human glomerular mesangial cells; assay: Invention assay: HPLC of lipids from IL-1-stimulated mesangial cells; format: cell-based; settings: HMC incubated with diacylglycerol kinase inhibitor
Description: The compounds of Formula I are shown to modulate the effects of primary stimuli which elevate levels of the relevant subspecies of PA and DAG using the assay system of the invention. In general for the assay, the cells to be tested are first incubated with the primary stimulating agent for various time periods and fixed in ice-cold methanol. The lipids are extracted using, for example, chloroform:methanol 2:1 (v/v), and the extracts are then subjected to HPLC as described by Bursten and Harris, Biochemistry (1991)------. In this method, a Rainin mu-Porasil column is used with a 3:4 hexane:propanol organic carrier and a 1-10% water gradient during the first 10 minutes of separation. Detection of the peaks in the elution pattern is by absorption in the range of ultraviolet which detects isolated double bonds. Thus, the relevant peaks of unsaturated PA and DAG are shown in the elution pattern. It is important to note that the assay method permits discrimination between various forms of PA and DAG so that those relevant to the pathway affected by the compounds of Formula I can be measured directly. Confirmation of the nature of the acyl substituents of these components is accomplished using fast-atom bombardment mass spectroscopy. Thus, the relevant unsaturated (non-arachidonic) PA and DAG subspecies may be detected. The time periods employed are 5-60 seconds after stimulation with the primary stimulus, such as a cytokine. This technique permits assessment of the levels of various lipid components as a function of time.
To test the effect of the compounds of the invention, the candidate compound is included in the initial incubation at various concentrations. Fixing, extraction and HPLC are conducted as above. The effect of the candidate compound is then reflected in a lowering of the relevant PA and DAG levels as compared to the cells without candidate in the control as illustrated hereinbelow.
Human glomerular mesangial cells were incubated with IL-1 for various time periods of 5-60 seconds and the cells were fixed in ice-cold methanol, and the lipids extracted using chloroform:methanol 2:1 (v/v). It is very important that the fixing/extraction process be conducted quickly so that the decomposition of unstable intermediates is halted.
The extracts were subjected to HPLC on a Rainin mu-Porasil column with a 3:4 hexane:propanol organic carrier and a 1-10% water gradient during the first 10 minutes of separation. The relative concentration of each lipid species is determined using absorption at 206 nm (A206), which follows unsaturated acyl content of lipid species. […] The absolute mass of each lipid species is determined by lisolation of the lipid using a fraction collector, repurification on the HPLC column. […] Protein concentration is determined using the Bradford technique. […]

O=C(O)c1cn(C2CC2)c2cc(N3CCNCC3)c(F)cc2c1=O [Ciprofloxacin]
effect on the transformed phenotype [1]: significant effect

Cn1c(=O)n(CCCCC(C)(C)O)c(=O)c2[nH]cnc21 [HWA138, reference compound]
suppression of T cell proliferation (T cell proliferation): minimal or no suppression

CCOCn1cnc2c1c(=O)n(CCCCC(C)(C)O)c(=O)n2C [HWA448, reference compound]
suppression of T cell proliferation (T cell proliferation): active

CC(O)CCCCn1c(=O)c2c(ncn2C)n(C)c1=O (centres unmarked) [M1, 1-(5-hydroxyhexyl)-3,7-dimethylxanthine]
suppression of T cell proliferation (T cell proliferation): active

CC(O)C(O)CCCn1c(=O)c2c(ncn2C)n(C)c1=O (centres unmarked) [M3, 1-(4,5-dihydroxyhexyl) -3,7-dimethylxanthine]
suppression of T cell proliferation (T cell proliferation): minimal or no suppression

Cn1cnc2c1c(=O)n(CCCCC(=O)O)c(=O)n2C [M4, 1-(4-carboxybutyl)-3,7-dimethylxanthine]
suppression of T cell proliferation (T cell proliferation): minimal or no suppression

Cn1cnc2c1c(=O)n(CCCC(=O)O)c(=O)n2C [M5, 1-(3-carboxypropyl)-3,7-dimethylxanthine]
suppression of T cell proliferation (T cell proliferation): minimal or no suppression

Cc1nc2sccn2c(=O)c1CCN1CCC(=C(c2ccccc2)c2ccc(F)cc2)CC1 [R 50922]
HPLC pattern (reappearance of PA after IL-1) [2]: does not alter the HPLC pattern
